# Experimental data as given in patent US20240075000A1 (priority 2021, published 2024).
# Counter-ions that a name gives are not always drawn.
# Key:
# [1] = system: post-COVID-19 fatigue patient; experiment: post-COVID-19 fatigue case (Example 5); format: in vivo, human; details: 500 mg BID
# Method: Afterwards, although their fever was resolved, they experienced fatigue so extreme that it was difficult for them to walk to the bathroom. They started taking 500 mg anhydrous enol-oxaloacetate BID for 45 days. Within 3 days 80% of fatigue was resolved. After 30 days, 100% of their fatigue was resolved.
# patient = experiment: one-year high-dose tolerability in a patient; format: in vivo, human; details: up to 6,000 mg/day for one year in a patient
# [2] = system: post-COVID-19 fatigue patient; experiment: post-COVID-19 fatigue case, physician (Example 3); details: 500 mg BID; for Visual Fatigue Score: baseline 3, range 0 worst to 10 no fatigue; for Chalder Fatigue Score: range 33 worst to 0 no fatigue; for Fatigue Severity Score: baseline 54, range 63 worst to 9 no fatigue; for PROMIS Fatigue 7a: range 35 worst to 7 no fatigue
# [3] = system: Amyotrophic Lateral Sclerosis (ALS) patients; experiment: Phase 1 clinical trial in ALS, patient testimonials; format: in vivo, human; details: 1000 mg BID, dose taken without food; went away on eating
# Method: A Phase 1 clinical trial was conducted with the Inventor supplying the anhydrous enol-oxaloacetate drug. Typically, Phase 1 clinical trials focus on the safety of a proposed drug, but patient response efficacy is also important and is noted. […] My name is […]. I was diagnosed with Bulbar onset ALS by Dr. Jawdat at the KU Medical Center in Kansas City KS on Oct. 14, 2020. […] I have muscle fasciculations pretty much all over my body at times and most are constant. The first 4 to 5 days taking the supplement, I did feel like they intensified an hour to two hours after taking it, and it lasted for approximately an hour or two. After those 4 or 5 days, it went back to the normal strength. At approximately the third week of taking the supplement I began to notice my tongue movement had better range of motion. I could see it pushing out the side of my cheek, I couldn't get it over there before. I also have felt like my left hand has gained a little strength and grip and I feel like I have a bit more strength in my left wrist. I do however feel like most things are still declining, but with such a short time of trying the supplement, I want to keep taking it to see if things can keep improving/changing. I am currently not on any ALS medications but do take some vitamins. • Patient 2. My spouse, Nathan, was part of a study with oxaloacetate for ALS. […]
smiles,measurement,setting,value
"O=C(O)CC(=O)C(=O)O [anhydrous enol-oxaloacetate, hydroxy fumarate]",fatigue resolved,[1]; after 30 days,100%
same,fatigue resolved,[1]; within 3 days,80%
same,side effects,patient,no negative side effects
same,Visual Fatigue Score,"[2]; Final, Dec. 3, 2020",10
same,Chalder Fatigue Score,"[2]; Final, Dec. 3, 2020, baseline 22",2
same,Fatigue Severity Score,"[2]; Final, Dec. 3, 2020",20
same,PROMIS Fatigue 7a,"[2]; Final, Dec. 3, 2020",11
same,Visual Fatigue Score,"[2]; Nov. 3, 2020",4
same,Fatigue Severity Score,"[2]; Nov. 3, 2020",54
same,PROMIS Fatigue 7a,"[2]; Nov. 3, 2020, baseline N/A",25
same,Chalder Fatigue Score,"[2]; Nov. 3, 2020, baseline Oct. 14, 2020 22",16
same,side effect noticed by the patient,[3],upset stomach
